Literature values in publication PMC8198792, “Prediction of Anticancer Peptides with High Efficacy and Low Toxicity by Hybrid Model Based on 3D Structure of Peptides” (International Journal of Molecular Sciences, 2021).
Read-outs that look alike come from different tables or passages of the source.

Tested on: cancer cell lines
Set-up: method as in 6 sources, ref CancerPPD [45] and SATPdb ||| ref CancerPPD/SATPdb ||| ref CancerPPD, SATPdb, Swissprot (PDB) ||| ref CancerPPD/SATPdb/Swissprot(PDB) ||| ref CancerPPD / SATPdb ||| ...
Details: cited from earlier work
Description: Supplement ijms-22-05630-s001.zip/ACPs(seguence).xlsx, sheet "D1" | column: Activity || Supplement ijms-22-05630-s001.zip/ACPs(seguence).xlsx, sheet "D2" | column: Activity || Supplement ijms-22-05630-s001.zip/ACPs(seguence).xlsx, sheet "D3" | column: Activity || (+ 2 further places)

[1] = ACPs dataset D2 (supplement ACPs(seguence).xlsx, sheet D2), dataset label 1/0 (ACP / non-ACP), entries identified by Swissprot(PDB ID), ref CancerPPD/SATPdb/Swissprot(PDB)
[2] = ACPs dataset D5 (sheet "D5"), label 1 = ACP (positive set), 0 = non-ACP (negative set), ref CancerPPD [45] and SATPdb
[3] = ACPs dataset D1, 1 = ACP (positive), 0 = non-ACP (negative), label taken from databases, ref CancerPPD [45] and SATPdb
[4] = ACPs dataset D4 (sheet "D4"), label 1 = ACP (CancerPPD ID), 0 = non-ACP (non-anticancer AMP, SATPdb ID), ref CancerPPD [45] and SATPdb
[5] = ACPs dataset D3 (sheet "D3"), label 1 = ACP, 0 = non-ACP, ref CancerPPD/SATPdb
[6] = ACPs dataset D4 (sheet "D4"), label 1 = ACP, 0 = non-ACP, ref CancerPPD / SATPdb
[7] = ACPs dataset D5, sheet "D5", label 1 = ACP, 0 = non-ACP, ref CancerPPD [45] and SATPdb
[8] = ACPs dataset D1, label 1 = ACP, 0 = non-ACP (non-anticancer AMPs from SATPdb), ref CancerPPD/SATPdb
[9] = ACPs dataset D3 (supplement sheet "D3"), 1 = ACP, 0 = non-ACP, ref CancerPPD [45] and SATPdb
[10] = ACPs dataset D4 (sheet "D4"), label 1 = ACP, experimentally validated ACPs, ref CancerPPD [45] and SATPdb
[11] = ACPs dataset D5 (sheet "D5"), label 1 = ACP (positive set), sequences with CancerPPD/SATPdb ID, ref CancerPPD, SATPdb
[12] = ACPs dataset sheet D2, 1 = ACP (CancerPPD/SATPdb ID), 0 = non-ACP (Swissprot/PDB ID), ref CancerPPD, SATPdb, Swissprot (PDB)

In the case of “YITCLFRGARCRVYSGRSCCFGYYCRRDFPGSIFGTCSRRNF [2DCW NMR - A 1-42]”, the Activity [1] is listed as 0 and the Activity [2] is listed as 0.
In the case of GIWDTIKSMGKVFAGKILQN [satpdb10030], the Activity [3] is given as 0 and the Activity [4] is given as 0.
For RGGRLTYTRpRFTVTVGR [satpdb14856], the Activity [5] is listed as 0, the Activity [6] is listed as 0 and the Activity [7] is listed as 0.
In the case of “GLPVCGETCTLGTCYTQGCTCSWPICKRN [satpdb13318]”, the Activity [8] is listed as 0 and the Activity [6] is listed as 0.
In the case of MASRAARLAARLARLALRAL [satpdb10584], the Activity [3] is given as 0 and the Activity [4] is given as 0.
In the case of KVMAHMK [satpdb14375], the Activity [5] is listed as 0, the Activity [6] is listed as 0 and the Activity [7] is listed as 0.
In the case of KFPKFRRGIPFLFV [satpdb10093], the Activity [3] is given as 0 and the Activity [4] is given as 0.
In the case of KWFKKIPKFLHLLKKF [compound 1120], the Activity [9] is given as 1, the Activity [4] is given as 1 and the Activity [2] is given as 1.
For KLLKKLLKWLK [satpdb13967], the Activity [5] is listed as 0, the Activity [6] is listed as 0 and the Activity [7] is listed as 0.
In the case of TMPFLFCNVNDCNFASRNDYSYWL [satpdb12405], the Activity [3] is given as 1, the Activity [10] is given as 1 and the Activity [11] is given as 1. For the same substance, the Activity [12] was 1.
For GWLPTFGKILRKAMQLGPKLIQPI [satpdb12473], the Activity [8] is given as 0 and the Activity [4] is given as 0.
In the case of “RLGDILQKAREKIEGGLKKLVQKIKDFFGKFAPRTES [satpdb11337]”, the Activity [3] is given as 0 and the Activity [4] is given as 0.
For KWKLFKKIPKFLHLA [compound 1134], the Activity [9] is listed as 1, the Activity [4] is listed as 1 and the Activity [2] is listed as 1.
For RGDLLRHVVKILEKYL [compound 1672], the Activity [3] is listed as 1, the Activity [10] is listed as 1 and the Activity [11] is listed as 1. The Activity [12] was 1.
In the case of “FFGWLIKGAIHAGKAIHGLIHRRRH [compound 4436]”, the Activity [3] is given as 1, the Activity [10] is given as 1 and the Activity [11] is given as 1. The Activity [12] was 1.
In the case of “MERSTRELCLNFTVVLITVILIWLLVRSYQY [3W5A X-ray 3.01 C 1-31]”, the Activity [2] is given as 0 and the Activity [12] is given as 0.
In the case of FLPAVLRVAAQVVPTVFCAISKKC [satpdb11368], the Activity [3] is listed as 0 and the Activity [4] is listed as 0.
In the case of GKWMSLLKHIWK [compound 3655], the Activity [9] is given as 1, the Activity [4] is given as 1 and the Activity [2] is given as 1.
In the case of TEWTACSKSCGMGFSTRV [satpdb28517], the Activity [3] is listed as 1, the Activity [10] is listed as 1 and the Activity [11] is listed as 1. The Activity [12] was 1.
For “MITDVQLAIFANMLGVSLFLLVVLYHYVAVNNPKKQE [2LAT NMR - A 1-37]”, the Activity [1] is given as 0 and the Activity [2] is given as 0.
In the case of “ALWKDILKNVGKAAGKAVLNTVTDMVNQ [compound 1707]”, the Activity [9] is given as 1, the Activity [10] is given as 1 and the Activity [11] is given as 1.
In the case of INLKAIAAMAKKL [satpdb11272], the Activity [3] is given as 0 and the Activity [4] is given as 0.
For “MKNAKQEHFELDQEWVELMVEAKEANISPEEIRKYLLLNKKSAHPGPAARSHTVNPF [1B0N X-ray 1.90,B,1-57]”, the Activity [1] is listed as 0 and the Activity [7] is listed as 0.
For TGASSEEEDPF [satpdb18128], the Activity [3] is given as 1, the Activity [10] is given as 1 and the Activity [11] is given as 1. For the same substance, the Activity [12] was 1.
In the case of AKLkAyPLKAKLyP [satpdb12877], the Activity [5] is listed as 0, the Activity [6] is listed as 0 and the Activity [7] is listed as 0.
For FLWWLFKWAWK [compound 1728], the Activity [3] is listed as 1, the Activity [9] is listed as 1 and the Activity [10] is listed as 1. For the same substance, the Activity [11] was 1 and the Activity [12] was 1.
In the case of FLKDHRISTFKNWPF [satpdb15356], the Activity [3] is given as 1, the Activity [10] is given as 1 and the Activity [11] is given as 1. For the same substance, the Activity [12] was 1.
For “MISDEQLNSLAITFGIVMMTLIVIYHAVDSTMSPKN [1RKL NMR - A 1-36]”, the Activity [1] is listed as 0 and the Activity [2] is listed as 0.
In the case of GLFDIVKKIAGHIVSSI [compound 1297], the Activity [9] is given as 1, the Activity [4] is given as 1 and the Activity [2] is given as 1.
For “KWKEFLKEFKEAKKEVLHEALKAISE [satpdb14503]”, the Activity [5] is listed as 0, the Activity [6] is listed as 0 and the Activity [7] is listed as 0.
For “AEVAPAPAAAAPAKAPKKKAAAKPKKAGPS [satpdb11318]”, the Activity [3] is given as 0 and the Activity [4] is given as 0.
For “GLPVCGETCFGGTCNTPGCTCDPWPVCTRN [compound 4427]”, the Activity [3] is given as 1, the Activity [10] is given as 1 and the Activity [11] is given as 1. The Activity [12] was 1.
For “DDTPSSRCGSGGWGPCLPIVDLLCIVHVTVGCSGGFGCCRIG [2JR3 NMR - A 1-42]”, the Activity [1] is listed as 0 and the Activity [2] is listed as 0.
For “RDCTSQSHKFVGLCLSDRNCASVCLTEYFTGGKCDHRRCVCTKGC [satpdb13162]”, the Activity [8] is given as 0 and the Activity [6] is given as 0.
For “KWKSFAKTFKSAKKTVAHTALKAISS [compound 1445]”, the Activity [3] is listed as 1, the Activity [10] is listed as 1 and the Activity [11] is listed as 1. For the same substance, the Activity [12] was 1.
In the case of LSSTCILVLVKSTY [satpdb19063], the Activity [3] is listed as 1, the Activity [10] is listed as 1 and the Activity [11] is listed as 1. The Activity [12] was 1.
For “GGLKKLGKKLEGVGKRVFKASEKALPVLTGYKAIG [satpdb10158]”, the Activity [3] is given as 0 and the Activity [4] is given as 0.
In the case of KWKKLLKKPLKLLKKLL [satpdb14017], the Activity [5] is given as 0, the Activity [6] is given as 0 and the Activity [7] is given as 0.
In the case of GFKDLLKGAAKALVKTVLF [compound 4388], the Activity [3] is listed as 1, the Activity [10] is listed as 1 and the Activity [11] is listed as 1. The Activity [12] was 1.
For DFKLFAVYIKYR [satpdb16901], the Activity [3] is given as 1, the Activity [10] is given as 1 and the Activity [11] is given as 1. The Activity [12] was 1.
For KWKLFAKIGIGKFLHLAKKF [compound 1837], the Activity [9] is given as 1, the Activity [4] is given as 1 and the Activity [2] is given as 1.
For “KKWGWLAWVDPAYEFIKGFGKGAIKEGNKDKWKNI [2JPK NMR - A 1-35]”, the Activity [1] is given as 0 and the Activity [2] is given as 0.
In the case of “ASFPWSCPSLSGVCRKVCLPTELFFGPLGCGKGFLCGVSHFL [satpdb13301]”, the Activity [8] is given as 0 and the Activity [6] is given as 0.
For “GSIPACGESCFKGKCYTPGCSCSKYPLCAKN [2GJ0 NMR - A 1-31]”, the Activity [2] is listed as 0 and the Activity [12] is listed as 0.
In the case of “KKVCACPKILKPVCGSDGRTYANSCIARCNGVSIKSEGSCPTGILN [1LDT X-ray 1.90,L,1-46]”, the Activity [1] is given as 0 and the Activity [2] is given as 0.
For RRWCFRVCYRGRFCYRKCR [satpdb14798], the Activity [5] is listed as 0, the Activity [6] is listed as 0 and the Activity [7] is listed as 0.
In the case of TEWSACNVRCGRGWQKRSR [satpdb12052], the Activity [3] is listed as 1, the Activity [10] is listed as 1 and the Activity [11] is listed as 1. For the same substance, the Activity [12] was 1.
For GKWMKLLKHILK [compound 3652], the Activity [9] is listed as 1, the Activity [4] is listed as 1 and the Activity [2] is listed as 1.
For RPFVEMYSEIPE [satpdb28120], the Activity [3] is given as 1, the Activity [10] is given as 1 and the Activity [11] is given as 1. For the same substance, the Activity [12] was 1.
In the case of CLRIGMRGRELMGGIGKTM [satpdb12393], the Activity [8] is listed as 0 and the Activity [4] is listed as 0.
For “KWKSFLKTFKSLKKTVLHTLLkAISS [compound 3767]”, the Activity [9] is listed as 1, the Activity [4] is listed as 1 and the Activity [2] is listed as 1.
For “QLKKCWNNYVQGHCRKICRVNEVPEALCENGRYCCLNIKELEAC [satpdb10388]”, the Activity [3] is given as 0 and the Activity [4] is given as 0.
For GIGKFLHSAKKFGKAFVGEIMNS [compound 1116], the Activity [9] is listed as 1, the Activity [4] is listed as 1 and the Activity [2] is listed as 1.
For GVWSTILGGLKKFAKGGLDAIVNPK [satpdb10425], the Activity [3] is given as 0 and the Activity [4] is given as 0.
For INWKKIAEVGGKILSS [satpdb11077], the Activity [3] is listed as 0 and the Activity [4] is listed as 0.
In the case of GIFGKILGAGKKVLCGLSGLC [satpdb11792], the Activity [8] is listed as 0 and the Activity [4] is listed as 0.
In the case of KWKLFKKIGIGKFKLAKKF [compound 1206], the Activity [9] is given as 1, the Activity [4] is given as 1 and the Activity [2] is given as 1.
In the case of FKCRRWQWRMKKLGA [compound 1111], the Activity [9] is given as 1, the Activity [10] is given as 1 and the Activity [11] is given as 1.
In the case of “KTCENLSGTFKGPCIPDGNCNKHCRNNEHLLSGRCRDDFRCWCTNRC [6NOM NMR - A 1-47]”, the Activity [1] is listed as 0 and the Activity [2] is listed as 0.
For KGRGKRRREKQRPCDKPRR [satpdb15140], the Activity [3] is given as 1, the Activity [10] is given as 1 and the Activity [11] is given as 1. The Activity [12] was 1.
For AIGSILGALAKGLPTLISWIKNR [compound 4433], the Activity [3] is given as 1, the Activity [10] is given as 1 and the Activity [11] is given as 1. The Activity [12] was 1.
